IC50 data for 1 compound are collected here from paper PMC6970549, “Orai1 Channel Inhibition Preserves Left Ventricular Systolic Function and Normal Ca^2+ Handling After Pressure Overload” (Circulation, 2020).

For this experiment, the target named is Orai1 (Homo sapiens, UniProt Q96D31). Kind of experiment: patch-clamp electrophysiology in Orai1-transfected HEK293 cells. It is filed as cell-based. An excerpt: patch-clamp electrophysiology in Orai1-transfected HEK293 cells on Orai1 | Electrophysiological recordings in Orai1-transfected HEK293 cells also confirmed that JPIII is a potent Orai1 inhibitor with an IC50 of […]
(In general: The patch-clamp technique gives a direct electrical read-out from membranes.)

Chain of Orai1 (Q96D31 whole entry): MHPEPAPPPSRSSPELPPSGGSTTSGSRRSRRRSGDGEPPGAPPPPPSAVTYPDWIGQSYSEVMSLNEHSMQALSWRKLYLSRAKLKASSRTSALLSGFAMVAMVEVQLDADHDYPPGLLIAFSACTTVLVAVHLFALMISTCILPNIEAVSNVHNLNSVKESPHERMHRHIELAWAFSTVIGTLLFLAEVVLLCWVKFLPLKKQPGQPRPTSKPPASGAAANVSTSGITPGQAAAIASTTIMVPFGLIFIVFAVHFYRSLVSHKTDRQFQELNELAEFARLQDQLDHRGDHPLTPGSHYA

The IC50 is the concentration that inhibits the measured activity by half. The low end stands for higher potency, the high end for lower potency. For the compound `COc1ccc(OC)c(-c2ccc(NCc3ccncc3)cc2)c1` [JPIII, 4-(2,5-dimethoxyphenyl)-N-[(pyridin-4-yl)methyl]aniline], inhibition was half-maximal at 244 ± 39 nM (IC50).
